Source: patent publication US8658668B2, “PI3 kinase/mTOR dual inhibitor” (Eli Lilly and Company, priority 2011, dated 2014)

What was measured:
[1] = tested on: MAXF 1384 human tumor xenograft cells; assay: Oncotest tumor clonogenic assay, MAXF 1384; type: cell-based; settings: colony formation, Mammary MAXF 1384, adeno carcinoma, pd, read-out: Absolute IC50
U87MG = assay: Cell proliferation assay (CellTiter-Glo), U87MG; type: cell-based; settings: Homo sapiens, U-87 MG, 96 h
Description: (§1) Plate cells in a 96-well plate at 2000 cells/well in 100 μL of cell specific medium (for U87MG use DMEM, 10% FBS, 25 mM 4-(2-hydroxyethyl)-1-piperazineethanesulfonic acid (HEPES), 1.0 mM sodium pyruvate, and 0.1 mM Non Essential Amino Acids (ATCC Cat.#30-2002); for HT1080 use Eagle's MEM, 10% FBS (ATCC Cat.#30-2003); for H1975, A2780, SJSA-1 and 786-O use RPMI 1640, 10% FBS (ATCC Cat.#30-2001); for A204 use McCoy's 5A, 10% FBS (ATCC Cat.#30-2007) except in column 1 use medium only as the blank control. Incubate the plates overnight at 37° C. and 5% CO2. On the next day, prepare compound stocks at 1 mM in DMSO and serially dilute in DMSO in a 96-well round bottom polypropylene plate. Assay compounds at 10 concentrations in duplicate, 4 compounds per plate.
(§2) Transfer 4 μL of the DMSO serial dilutions to a 96 well plate and add 196 μL of culture medium to create a 10× stock for dosing. Gently transfer 11 μL of each dosing stock to the corresponding well of the cell plate resulting in a 0.2% DMSO concentration and a 111 μL final volume. […]
(§3) Prepared the CellTiter-Glo reagent (Promega, Cat: G7571) and add 100 µL to each well after the incubation is complete, homogenize the cells by mixing on an orbital shaker for 2 min and then incubate at RT for 10 min to allow the luminescent signal to stabilize. Record the luminescent raw data with a Wallac Victor V plate reader. […]

[2] = tested on: RXF 393 human tumor xenograft cells; assay: Oncotest tumor clonogenic assay, RXF 393; type: cell-based; settings: colony formation, Renal RXF 393, hypernephroid carcinoma, pd, read-out: Absolute IC50
[3] = tested on: OVXF 899 human tumor xenograft cells; assay: Oncotest tumor clonogenic assay, OVXF 899; type: cell-based; settings: colony formation, Ovary OVXF 899, pap. serous adeno carcinoma, md, read-out: Absolute IC50
pS473 AKT = assay: In vivo target inhibition in U87MG tumors, pS473 AKT; settings: Mus musculus, U-87 MG; for inhibition at 0.5 mg/kg: 0.5 mg/kg oral; for inhibition at 1.5 mg/kg: 1.5 mg/kg oral; for inhibition at 3 mg/kg: 3 mg/kg oral; for inhibition at 6 mg/kg: 6 mg/kg oral; for inhibition at 10 mg/kg: 10 mg/kg oral; for inhibition at 12 mg/kg: 12 mg/kg oral
Description: Implant U87MG human glioblastoma cells (5×10^6) subcutaneously into the flank of athymic nude mice in 0.2 mL of matrigel. Ten days post-implantation, dose mice orally according to a time course, single dose/single time point, or dose response protocol for the determination of TMED50 (threshold minimum effective dose). Flash freeze tumors at harvest and collect blood for the determination of parent compound plasma exposure and the calculation of TMEC50 (threshold minimum effective concentration) in the case of dose response studies. Homogenize tumors in 500 μL of XY Lysis Buffer (10 μg/mL Leupeptin, 10 μg/mL Trypsin-Chymotrypsin Inhibitor, 10 μg/mL Tosyl phenyl-alanyl chloromethyl ketone, 10 μg/mL Aprotinin, 60 mM Beta-Glycerol Phosphate, 1% Triton X100, 25 mM Tris pH 7.5, 2.5 mM Pyrophosphate, 150 mM NaCl, 2 mM p-tosyl-L-arginine methyl ester, 15 mM para-nitrophenyl phosphate, 5 mM benzamidine, 1 mM sodium vanadate, 10 mM sodium fluoride, 50 μg/mL phenyl-methane sulfonyl fluoride, 1 mM 1,4-dithiothreitol (DTT), 15 mM EDTA pH 8.0, 5 mM EGTA pH 8.0, 1 μM Microcystin, 1 μM Okadaic Acid, and 1 Roche Complete protease inhibitor mini-tablet per 10 mL) using RNase Free Pellet Pestle (Kimble-Kontes). Aliquot lysates and either assay immediately or store at −80° C. for later testing. Use the multiplex format of Meso Scale Discovery (Gaithersburg, Md.) ELISA technology and measure in vivo target inhibition of PI3K and mTOR to assess effects on phosphorylation of the threonine 308 site of AKT, a downstream effector of PI3K; phosphorylation on the threonine 389 site of p70 S6K and on the serine 240/244 site of S6RP, downstream effectors of mTORC1; phosphorylation of the serine 473 site of AKT, a downstream effector of mTORC2. Add 20 μg of lysate to carbon electrode containing 96-well plates pre-spotted with the appropriate capture antibodies. Probe the protein of interest using a ruthenium labeled detection antibody. Pass current over the electrode in the presence of read buffer containing the co-reactant TPA, and quantitate and record the light generated by electro-chemiluminescence with the MSD Sector 6000 instrument. Calculate percent inhibitions relative to the vehicle control group and perform ANOVA analysis using the JMP software package for the determination of statistical significance.

[4] = tested on: CXF 1103 human tumor xenograft cells; assay: Oncotest tumor clonogenic assay, CXF 1103; type: cell-based; settings: CXF1103, colony formation, Colon CXF 1103, adeno carcinoma, pd, read-out: Absolute IC50
A2780 = assay: Cell proliferation assay (CellTiter-Glo), A2780; type: cell-based; settings: Homo sapiens, A2780, 72 h
Description: as §1, §2, §3

[5] = tested on: LXFA 629 human tumor xenograft cells; assay: Oncotest tumor clonogenic assay, LXFA 629; type: cell-based; settings: colony formation, NSCLC LXFA 629, adeno carcinoma, pd, read-out: Absolute IC50

SMILES: CO[C@@H](C)Cn1c(=O)n(C)c2cnc3ccc(-c4cncc(C(C)(C)O)c4)cc3c21 [Example 1, 8-[5-(1-Hydroxy-1-methylethyl)pyridin-3-yl]-1-[(2S)-2-methoxypropyl]-3-methyl-1,3-dihydro-2H-imidazo[4,5-c]quinolin-2-one]
- IC50 [1]: 243 nM
- IC50 (U87MG): 74 nM
- IC50 [2]: 44 nM
- IC50 [3]: 590 nM
- inhibition at 0.5 mg/kg (pS473 AKT; 0.5 hr post dose): -9%
- inhibition at 0.5 mg/kg (pS473 AKT; 4 hr post dose): -28%
- inhibition at 1.5 mg/kg (pS473 AKT; 0.5 hr post dose): 34%
- inhibition at 1.5 mg/kg (pS473 AKT; 4 hr post dose): -12%
- inhibition at 3 mg/kg (pS473 AKT; 0.25 hr post dose): 23%
- inhibition at 3 mg/kg (pS473 AKT; 0.5 hr post dose): 63%
- inhibition at 3 mg/kg (pS473 AKT; 1 hr post dose): 12%
- inhibition at 3 mg/kg (pS473 AKT; 3 hr post dose): -7%
- inhibition at 3 mg/kg (pS473 AKT; 4 hr post dose): -3%
- inhibition at 6 mg/kg (pS473 AKT; 0.25 hr post dose): 63%
- inhibition at 6 mg/kg (pS473 AKT; 0.5 hr post dose): 77%
- inhibition at 6 mg/kg (pS473 AKT; 1 hr post dose): 67%
- inhibition at 6 mg/kg (pS473 AKT; 2 hr post dose): 51%
- inhibition at 6 mg/kg (pS473 AKT; 4 hr post dose): -5%
- inhibition at 6 mg/kg (pS473 AKT; 6 hr post dose): -8%
- inhibition at 6 mg/kg (pS473 AKT; 12 hr post dose): -6%
- inhibition at 10 mg/kg (pS473 AKT; 0.5 hr post dose): 90%
- inhibition at 10 mg/kg (pS473 AKT; 1 hr post dose): 73%
- inhibition at 10 mg/kg (pS473 AKT; 2 hr post dose): 66%
- inhibition at 10 mg/kg (pS473 AKT; 4 hr post dose): 56%
- inhibition at 10 mg/kg (pS473 AKT; 8 hr post dose): 13%
- inhibition at 12 mg/kg (pS473 AKT; 0.5 hr post dose): 91%
- inhibition at 12 mg/kg (pS473 AKT; 4 hr post dose): 44%
- IC50 [4]: > 200 nM
- IC50 (A2780): 90 nM
- IC50 [5]: 26 nM
